Laboratory results: PubChem BioAssay AID1996
Converted amounts (≈) assume the structure as drawn.

Settings: buffer; pH 7.4; 200.0 µM

solubility kinetic [µg/mL] | Structure (SMILES)
> 48.1 | COc1ccc(C(=O)NC2CC(C)(C)NC(C)(C)C2)cc1OC
< 0.5 | COc1ccc2cc(-c3ccon3)ccc2c1
6.9 (≈ 25.4 µM) | COc1ccc(/C=C/C(=O)NC2CC3CCC2C3)cc1 (stereo not given)
> 52.1 | O=S1(=O)CC2NC(=S)N(c3cccc(Br)c3)C2C1 (stereo not given)
0.5 (≈ 2.1 µM) | CCCSc1ncnc2sc(C)c(C)c12
19.9 (≈ 120 µM) | CCNc1ccc([N+](=O)[O-])cc1
1.3 (≈ 3.98 µM) | Cc1onc(-c2ccccc2)c1C(=O)NCc1ccc(Cl)cc1
19.2 (≈ 59.4 µM) | CN(C)C(C(=O)Nc1cc(Cl)cc(Cl)c1)c1ccccc1 (stereo not given)
1.5 (≈ 5.2 µM) | O=C(Nc1nccs1)c1ccc(-c2ccc(F)cc2)o1
> 45.1 | CCOc1ncccc1C(=O)NCCc1ccc(OC)cc1
> 43.6 | CC(C)N1CCN(CCCc2ccccc2)CC1CCO (stereo not given)
19 (≈ 56.6 µM) | COc1ccc(OC)c(NC(=O)COC(=O)CC2CCCCC2)c1
1.8 (≈ 6.09 µM) | COc1ccc(CC(=O)Nc2cccc3c2CCCC3)cc1
> 41.4 | O=C(CS(=O)(=O)c1ccccc1)Nc1cccnc1
> 62 | CCOC(=O)C1CCCN(C(=O)COc2ccc(C(=O)c3ccc(F)cc3)cc2)C1 (stereo not given)
26.8 (≈ 82.9 µM) | CCCc1ccc2oc(C(=O)N(C)Cc3cnccn3)c(C)c2c1
9.9 (≈ 32 µM) | COc1ccc(NC(=S)Nc2cccc3cnccc23)cc1
> 46.4 | Cc1c(C)n(-c2ccccc2)c2ncnc(NCCN(C)C)c12
13.4 (≈ 49.6 µM) | CC(C)Oc1ccc(/C=C(\C#N)C(=O)NC2CC2)cc1
> 68.8 | CN(CC(=O)NCCc1ccc(S(N)(=O)=O)cc1)CC(=O)Nc1ccc(F)c(F)c1F
> 51.4 | CC(Nc1ccc2c(c1)OCCO2)C(=O)Nc1ccc2c(c1)OCO2 (stereo not given)
38.2 (≈ 150 µM) | Cc1ccc(CONC(=O)c2cccc(C)c2)cc1
2.4 (≈ 8.98 µM) | COc1ccc2c(-c3ccccc3)cc(=S)[nH]c2c1

solubility kinetic [µg/mL] | Structure (SMILES)
26.6 (≈ 98.6 µM) | Cc1cc(C)c(OCCN2CCOCC2)c(Cl)c1
> 50.5 | O=C(OCC(=O)c1ccccc1)C1=NN(c2ccccc2)C(=O)CC1
> 48.5 | Cc1c(C)n(CCCN(C)C)c2ncnc(Nc3ccccc3)c12
50.2 (≈ 139 µM) | COc1cccc(N2CCN(C(=O)CSc3ccc(F)cc3)CC2)c1
> 45.8 | CN(C(=O)COc1ncnc2sccc12)C1CCCCC1
31.6 (≈ 95.7 µM) | O=C(CSc1ccc(F)cc1)Nc1ccc2c(c1)C(=O)NC2=O
42.9 (≈ 132 µM) | CC(Sc1nccn1C)C(=O)c1ccc(Br)cc1 (stereo not given)
> 51.2 | C=CCn1c(C)nc2c(sc3nc4c(cc32)COC(C)(C)C4)c1=O
16.3 (≈ 53.2 µM) | CC(C)Nc1nc(NC2CCCC2)nc(N2CCOCC2)n1
> 50.1 | NC(=O)c1ccc(NC(=O)COC(=O)c2ccc(Cl)nc2)cc1
> 43.1 | O=c1cc(C(F)(F)F)nc(SCc2cccnc2)[nH]1
> 42 | CCN(CC)C1=C(Cl)C(=O)C(Cl)C12OCCO2 (stereo not given)
> 42.6 | Cc1nc(-c2cccc(NC(=O)c3ccco3)c2)cs1
> 46 | Cc1csc(SCC(=O)NC2CCS(=O)(=O)C2)n1 (stereo not given)
0.5 (≈ 1.66 µM) | CSc1nc2ccc(NC(=O)c3ccccn3)cc2s1
32.2 (≈ 116 µM) | CN(C)CCC#CC1(O)c2ccccc2-c2ccccc21
> 45.7 | Cn1ncc(Cl)c1C(=O)N1CCN(c2ccccc2)CC1
> 41.8 | C/C(CC(=O)NC(C)c1ccccc1)=N\NC(N)=S (stereo not given)
> 41.3 | COc1ccc(C(=O)NCc2ccc(C(=O)O)o2)cc1
18.7 (≈ 61.5 µM) | Cc1ccc(Nc2nc(N)c([N+](=O)[O-])c(NCCO)n2)cc1
> 44.4 | O=C(CCC(=O)Nc1ccccc1)N/N=C/c1ccncc1
> 54.2 | CCOC(=O)CC1COCCN1Cc1cn(C)nc1-c1ccccc1F (stereo not given)
38.1 (≈ 130 µM) | COc1ccc(Cl)cc1NC(=S)Nc1cccnc1

solubility kinetic [µg/mL] | Structure (SMILES)
> 49.1 | O=C(COC(=O)COc1ccccc1)NC1CCS(=O)(=O)C1 (stereo not given)
1.1 (≈ 2.98 µM) | O=C(Nc1ccc(F)cc1)Nc1sccc1-c1nc2ccccc2s1
3.1 (≈ 11 µM) | CCC1OC(c2ccc([N+](=O)[O-])cc2)=Nc2ccccc21 (stereo not given)
> 37.3 | NC(=O)c1cccnc1Oc1ccc(Cl)cc1
> 46.1 | CC[C@H](C)[C@H](NC(N)=O)C(=O)NCCc1ccc(OC)cc1
> 33.6 | OC(c1ccccc1)c1nc2ccccc2[nH]1 (stereo not given)
> 68.5 | COc1ccc(CNC(=O)COC(=O)C(CCSC)N2C(=O)c3ccccc3C2=O)cc1 (stereo not given)
37.5 (≈ 142 µM) | O=C(Nc1cccc([N+](=O)[O-])c1)N1CCCCCC1
> 61.3 | Cc1ccc(NC(=O)COC(=O)c2ccco2)cc1S(=O)(=O)N1CCOCC1
11.7 (≈ 36.1 µM) | CCN(C(=O)Cn1c(=O)oc2ccccc21)c1ccc(C)c(C)c1
9.2 (≈ 25.5 µM) | CCc1cccc(NC(=O)c2ccc3c(=O)n4c(nc3c2)CCCCC4)c1
42.2 (≈ 133 µM) | Cc1noc(C)c1C(=O)OCC(=O)Nc1ccc(C(N)=O)cc1
> 46.1 | CN(CC#CC(O)(c1ccccc1)c1ccccc1)C(C)(C)C
< 0.4 | CCc1cc2ccccc2nc1Cl
0.7 (≈ 2.12 µM) | COC(=O)c1sccc1NC(=O)c1c(Cl)cccc1Cl
55.3 (≈ 143 µM) | COc1ccc(C(=O)N(c2ccc(C)cc2)C2C=CS(=O)(=O)C2)cc1OC (stereo not given)
34.2 (≈ 149 µM) | O=C(NCc1ccc(F)cc1)c1ccncc1
14.9 (≈ 53 µM) | Cc1ccc(C)c(N2C(=O)C3C4C=CC(CC4)C3C2=O)c1 (stereo not given)
> 50.7 | CC(=O)Nc1cccc2c1C(=O)N(c1ccccc1OC(C)=O)C2=O
3.7 (≈ 12.6 µM) | COc1ccc(C(=O)NCc2cc3ccccc3n2C)cc1
> 41.3 | CCC(=O)c1ccc(OCC(=O)NC2CCCC2)cc1

Continued, compound first:

Structure (SMILES) | solubility kinetic [µg/mL]
N#CCc1ccc(OC(=O)c2cnccc2C(F)(F)F)cc1 | 13.6 (≈ 44.4 µM)
CCc1ccc2[nH]c(C)c(CN3CCCCCC3)c(=O)c2c1 | > 44.8
O=[N+]([O-])c1ccc(N=Cc2c(O)ccc3ccccc23)cc1 | 30.5 (≈ 104 µM)
NC(=O)c1ccccc1OCC(=O)Nc1ccc2c(c1)CCC2 | 9.5 (≈ 30.6 µM)
O=C(CC1SCCNC1=O)Nc1ccccc1Cl (stereo not given) | 38.6 (≈ 136 µM)
Cc1cccc(-n2c(C)nc3ccsc3c2=O)c1 | 35.8 (≈ 140 µM)
Cc1ccc(NC(=O)Nc2ccc3c(c2)CCC3)cc1C | < 0.3
O=C(NCCCN1CCOCC1)c1ccc2ccccc2c1 | > 44.8
Cc1cccc(Oc2nc(-c3ccncc3)nc3ccccc23)c1 | < 0.2
O=C(O)C(=O)O.O=[N+]([O-])c1ccccc1CNC1CCCCCC1 | > 50.8
CC(C)(C)C(=O)Nc1cccc(S(=O)(=O)NC2=NCCC2)c1 | > 48.5
COc1cc(/C=C/C(=O)O)cc(S(=O)(=O)NCC2CCCO2)c1OC (stereo not given) | 53.3 (≈ 144 µM)
O=C(CC1(CC(=O)N2CCOCC2)CCCC1)Nc1ccc(F)cc1 | > 52.3
COc1cccc(CNc2nc3ccccc3n2C(C)C)c1O | 2.2 (≈ 7.07 µM)
CN1CC(C(=O)c2ccc(F)cc2)C(c2c(F)cccc2Cl)C1 (stereo not given) | 40.9 (≈ 122 µM)
COc1ccc(NC(=O)c2ccc3ncsc3c2)cc1 | 1.3 (≈ 4.57 µM)
COc1cc(-c2noc(CCC(=O)NC3CCCCC3)n2)cc(OC)c1OC | 10 (≈ 25.7 µM)
COc1ccccc1-n1c(-c2ccccc2Cl)nc2ccccc2c1=O | 36.2 (≈ 99.8 µM)
COc1ccc(C)cc1COC(=O)c1[nH]c(C)c(C(C)=O)c1C | > 47.3
COCC(=O)Nc1ccc2c(c1)OCC(=O)N2Cc1ccc(C)cc1 | 20.9 (≈ 61.4 µM)
Cc1ccc(C(=O)OCC(=O)NC2CCCCC2)s1 | > 42.2
CC(C)N(C(=O)COC(=O)CCC(=O)c1cccs1)c1ccccc1 | > 53.9
CCc1ccc(OS(=O)(=O)c2cn(C)c(=O)n(C)c2=O)cc1 | > 48.7
COc1ccc(OCc2nc(-c3ccc(F)c(F)c3)cs2)cc1 | < 0.7
CCOC(=O)CNC(=O)CSc1nc(-c2ccc(OC)cc2)ns1 | 2.8 (≈ 7.62 µM)
CCNC(=O)CSc1nc(-c2ccc(F)cc2)cs1 | 42.8 (≈ 144 µM)
O=C(CCC(=O)N1CCCC1)Nc1ccc([N+](=O)[O-])cc1 | 41.3 (≈ 142 µM)

Structure (SMILES) | solubility kinetic [µg/mL]
O=C(NCc1ccccc1)C12CC3CC(CC(Br)(C3)C1)C2 | 6.6 (≈ 19 µM)
Cc1ccc(C(=O)NCC(=O)OCC(=O)NC2CCCCCCC2)cc1 | 53.2 (≈ 148 µM)
O=C(Cc1ccccc1F)Nc1cc(S(=O)(=O)N2CCOCC2)ccc1N1CCCC1 | 15.1 (≈ 33.7 µM)
CNc1nc(-c2cccs2)cc(C(F)(F)F)c1C#N | < 0.2
Cc1sc2nc(SCCO)n(-c3ccccc3)c(=O)c2c1C | 1.4 (≈ 4.21 µM)
CCOc1ccc(C(=O)NCc2ccco2)cc1OC | 37.7 (≈ 137 µM)
O=C(NC1CCCCC1)Oc1cc2oc(=O)sc2cc1Cl | 10.1 (≈ 30.8 µM)
Cc1cc(C)c(OCCCON2C(=O)CCC2=O)c(Br)c1 | > 53.4
COc1ccc(-n2c(CNCCc3ccc(C)cc3)nc3ccccc3c2=O)cc1 | 45.2 (≈ 113 µM)
CCOC(=O)C(=O)Nc1sc(C(=O)N(CC)CC)c(C)c1C#N | > 50.6
Cc1ccc(Nc2c(-c3ccc(N(C)C)cc3)nc3ncccn23)cc1 | 1 (≈ 2.91 µM)
C[C@H](NC(=O)c1ccco1)C(=O)NCc1cccs1 | > 41.7
C=CCSc1nc(C)c(CCC(C)C)c(=O)[nH]1 | 9.2 (≈ 36.5 µM)
CN(C)S(=O)(=O)Nc1cccc(Br)c1 | > 41.9
COC(=O)c1ccc(NC(=O)COc2ccc([N+](=O)[O-])cc2)cc1 | 0.4 (≈ 1.21 µM)
Cc1cccnc1NC(=O)Nc1ccccc1 | 4.1 (≈ 18 µM)
COc1cc([N+](=O)[O-])ccc1NC(=O)/C=C\C(=O)O | > 39.9
CCOC(=O)C1=C(N)OC2=C(C(=O)CCC2)C12C(=O)N(C)c1ccccc12 (stereo not given) | 29.1 (≈ 79 µM)
CC(=O)N1c2ccc(C)cc2C(c2ccccc2)CC1C (stereo not given) | 40.6 (≈ 145 µM)
O=C(O)C(=O)O.OC1(c2ccccc2)CCNC2CCCCC21 (stereo not given) | > 48.2
COc1ccc2oc(=O)c(C(=O)NCc3ccccc3)cc2c1 | 0.7 (≈ 2.26 µM)
Cc1nc2ccc(Cl)cc2nc1C | 9.4 (≈ 48.8 µM)
O=C1COc2ccccc2N1Cc1c(F)cccc1Cl | 20 (≈ 68.6 µM)
CCOC(=O)Nc1ccc(OC)c([N+](=O)[O-])c1 | > 36
CNc1ccc([N+](=O)[O-])cc1C(=O)O | 26.7 (≈ 136 µM)
Cc1cc(C)cc(C(=O)Oc2cc(C)[nH]c(=O)c2[N+](=O)[O-])c1 | > 45.3
